Read-outs that look alike come from different tables or passages of the source.
What was measured:
[1] = Liver microsomes in vitro stability (mouse); type: in vitro ADME; conditions: read-out: T1/2/min
Method: (§1) 1. Preparation of Working Solution:
(§2) Microsomes were taken out from the −80° C. refrigerator, rapidly melted in a 37° C. water bath and placed on ice until ready to use. The test article was diluted with DMSO to prepare a 10 mM stock solution, and then diluted with acetonitrile to a 0.5 mM secondary stock solution. […] NADPH was diluted with Buffer C to a working solution of 6 mM for the starter solution. An acetonitrile solution containing an internal standard was prepared as the precipitant, and Verapamil-HCl was chosen as the internal standard at a concentration of 4 ng/ml.
(§3) 2. Experimental Procedure:
(§4) A round-bottom well plate was taken, noted as the reaction plate, and the prepared working solution for each compound was dispensed into the well plate according to the number of replicates and time points (0 h samples were also added to the reaction plate), 30 μL/well; the plate was incubated at 37° C. for 10 min. A separate plate with pointed bottom wells, noted as a precipitation plate, was added with 135 μL precipitant per well; 0 h samples were transferred to the plate after 10 min incubation and 15 μL of starter solution was added; the plate was placed on ice before centrifugation.
(§5) The diluted starter solution was added in sufficient quantity to the dispensing plate to facilitate the multichannel pipette aspiration operation.
(§6) The reaction was carried out on a warm incubation shaker and 15 μL of starter solution/sample is added to the plate using a multichannel pipette. The reaction was mixed with a slight shake to initiate the reaction, which was accurately timed and recorded using a timer. In general, samples with shorter reaction times are initiated late and vice versa early, allowing sufficient time for multiple plate manipulation to terminate the reaction. For example, as for the four experiments of 5, 15, 30, and 60 min, the 60 min experiment was started first, and the 5 min experiment was started later, so as to leave sufficient time for the 5 min group.
(§7) After the reaction time had elapsed, all the solution in the plate was aspirated using the multichannel pipette and added to the precipitation plate to terminate the reaction at that point in time. After all reactions had been terminated, the plates were shaken for ten minutes on a plate shaker at 600 rpm to precipitate the protein. The plate was centrifuged at 4° C. for 15 minutes at maximum rpm. 80 μL of supernatant was taken, 320 μL of pure water was added and mixed for LC-MS analysis.

[2] = Membrane permeability study (Caco-2); type: in vitro ADME; conditions: human; for efflux ratio at 90 min, 10 µM: Caco-2, pH 7.4; for Papp A→B at 90 min, 10 µM / Papp B→A at 90 min, 10 µM: pH 7.4, Caco-2, 10 μM; for Papp A→B at 90 min, 10 µM: apical to basolateral; for Papp B→A at 90 min, 10 µM: basolateral to apical
Method: Caco-2 cells were purchased from the […] (Rockville, MD). The cell culture medium was modified Eagle's medium (MEM) containing 10% inactivated fetal bovine serum and 1% non-essential amino acids.
The cells were incubated for 21-28 days after inoculation for transport experiments and the apparent permeability (Papp) of Lucifer Yellow was used to characterize and verify the compactness of the cell monolayer. […] A 10 μM working solution of the compound to be tested was added to the apical side and basolateral side of Caco-2 and incubated at 37° C. for 90 min. After the incubation, dilute the samples on the apical side and basolateral side, and the concentrations of compounds on the apical and basolateral sides were detected by LC-MS/MS, and the concentrations of the compounds were quantified by standard curve.

MIA PaCa2 cells = assay: Anti-proliferative effect on MIA PaCa2 cells by Cell Titer-Glo; type: cell-based; conditions: Homo sapiens, MIA PaCa-2, 72 h, 3 days, read-out: MIA PaCa 2 (IC50, inhibition of proliferation in vitro)
Method: (§8) Test Example 2: Evaluation of Cell Proliferation Inhibitory Activity
2. Evaluation of the Anti-Proliferative Effect of Compounds on MIA PaCa2 Cells by the Cell Titer-Glo Method
(§9) Compound solutions of different concentration gradients were prepared. […] The cell growth group without compound was used as a positive control (maximum signal control) and the medium was used as a negative control (minimum signal control), while ensuring that the final level of DMSO in each reaction well was 0.2%. After removing the medium from the 384-well plate, 25 ul of the configured compound at different concentrations was transferred into the well plate and the compound and cells were incubated in the cell incubator at 37° C. with 5% CO2 for 3 days.
(§10) The 384-well plates were removed from the cell incubator and allowed to equilibrate for 1 h to room temperature. 25 ul of Cell Titer-Glo assay was added to each well, lysed on a shaker for 2 min and then read out (Luminescence) using a BMG PHERAStar after 10 min incubation. Calculate the inhibition rate from the luminescence signal: first calculate the average of the positive control (maximum signal control) and the negative control (minimum signal control).
(§11) was used to calculate the rate of inhibition of the cells by different concentrations of the compounds. The IC50 of the compound on cell activity inhibition was calculated by fitting a log(inhibitor) vs. response-Variable slope model to GraphPad Prism 6. The fitted equation was: Y=Bottom+(Top-Bottom)/(1+10^((Log IC50−X)*HillSlope)), wherein Y represents the rate of inhibition and X represents the concentration of the known compound after Log.
(§12) The results of the in vitro anti-cell proliferation assays of H1299 and MIA Paca-2 for the example compounds according to the method described above are shown in Table 2, wherein the IC50 of each compound was determined and classified according to the description as follows: […]

Wee1 protein = target: T1, Wee1 protein (Homo sapiens, UniProt P30291); assay: Binding of compound to Wee1 protein and Tracer 178 by TR-FRET (Wee1 kinase inhibitory activity); conditions: 15 nM WEE1, 50 nM Tracer 178, read-out: IC50 (inhibitory activity against Wee1 kinase)
T1 construct: purchased Thermo Fisher PR7373A
Method: First, solutions of the compounds in different concentration gradients were prepared. The compounds were dissolved in DMSO and the compounds were diluted 4 folds with a total of 10 dose points and 2 parallel replicates for each concentration.
The IC50 for inhibition of enzyme activity by the compounds was then calculated using GraphPad Prism 6 and fitted with a log (inhibitor) vs. response-Variable slope mode. The fitting equation was: Y=Bottom+(Top−Bottom)/(1+10^((Log IC50−X)*HillSlope)), wherein Y represents the percentage of residual enzyme activity known and X represents the known concentration of compound after the logarithm.

H1299 cells = assay: Anti-proliferative effect on H1299 cells by Cell Titer-Glo; type: cell-based; conditions: 3 days
Method: as §8
1. Evaluation of the Anti-Proliferative Effect of Compounds on H1299 Cells by the Cell Titer-Glo Method
as §9
as §10, with “1h” for “1 h”
as §11, with “Y=Bottom+(Top−Bottom)/(1+10^((Log” for “Y=Bottom+(Top-Bottom)/(1+10^((Log”, “where” for “wherein”
as §12

[3] = Liver microsomes in vitro stability (human); type: in vitro ADME; conditions: read-out: T1/2/min (H)
Method: as §1, §2, §3, §4, §5, §6, §7

[4] = Plasma protein binding (PPB), equilibrium dialysis; type: in vitro ADME; conditions: mouse plasma, 5 h dialysis
From the text: 1. Experimental Procedure
2. Data Processing and Parameter Calculation

[5] = Pharmacokinetics on single dose in mice (intravenous and oral); type: in vivo, ICR mice; conditions: male, ICR, mouse, plasma, Oral, 10 mg/kg
Method: 1. Experimental Aim: The present experiment aimed to obtain the pharmacokinetic profile of the subject compounds in ICR mice (both intravenous and oral) 3.1.2 Test System Species: SPF grade male ICR mice Body weight/weekly age: about 30 g 4. […] 4.2 Subjects Given (Route) Intravenous: 1 mg/kg in a volume of 5 mL/kg Gavage: 10 mg/kg in a volume of 10 mL/kg Ultrasound for 5 min before administration 4.3 Subject Preparation (Concentration) Intravenous: 0.2 mg/mL Gavage: 1 mg/mL Fast overnight before administration and feed four hours after administration. […] The blood samples were stored in a refrigerator at or below −20° C. for LC-MS/MS analysis. […] LC-MS/MS Analytical Detection Used 5. Data Processing The samples were detected for drug concentration at each time point by LC-MS/MS. Pharmacokinetic parameters terminal elimination half-life (t1/2), area under the curve (AUC), apparent volume of distribution (Vd), clearance (CL), mean residence time (MRT), and Cmax were calculated using the non-compartmental model of Phoenix WinNonlin 5.2. Bioavailability (F %) was directly from serum concentration results. Mean±standard deviation (X±SD) was used for blood concentration and pharmacokinetic parameters, etc. Specific testing and analytical methods were specified in the form of protocol revisions.

[6] = Homo sapiens, NCI-H1299, 72 h, read-out: H1299 (IC50, inhibition of proliferation in vitro)

T1 sequence (P30291 whole entry): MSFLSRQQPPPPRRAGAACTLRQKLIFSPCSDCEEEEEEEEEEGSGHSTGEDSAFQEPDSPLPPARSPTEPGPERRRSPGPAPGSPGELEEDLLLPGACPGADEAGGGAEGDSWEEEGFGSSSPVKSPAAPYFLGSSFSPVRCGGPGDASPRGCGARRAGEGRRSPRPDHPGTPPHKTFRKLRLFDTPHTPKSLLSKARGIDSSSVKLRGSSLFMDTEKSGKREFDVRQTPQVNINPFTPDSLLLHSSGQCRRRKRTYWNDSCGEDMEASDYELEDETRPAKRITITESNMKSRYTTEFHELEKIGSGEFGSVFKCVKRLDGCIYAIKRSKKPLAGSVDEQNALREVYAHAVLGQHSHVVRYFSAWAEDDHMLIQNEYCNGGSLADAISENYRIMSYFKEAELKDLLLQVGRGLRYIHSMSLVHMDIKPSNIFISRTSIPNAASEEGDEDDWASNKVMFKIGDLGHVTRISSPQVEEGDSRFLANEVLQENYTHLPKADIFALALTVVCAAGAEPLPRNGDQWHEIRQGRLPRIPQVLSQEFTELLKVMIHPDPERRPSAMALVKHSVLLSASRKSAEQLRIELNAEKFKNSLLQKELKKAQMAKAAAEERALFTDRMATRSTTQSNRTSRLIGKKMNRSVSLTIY

Compound	half-life at 1 µM [1] [min]	efflux ratio at 90 min, 10 µM [2]	Papp A→B at 90 min, 10 µM [2] [×10⁻⁶ cm/s]	Papp B→A at 90 min, 10 µM [2] [×10⁻⁶ cm/s]	IC50 (MIA PaCa2 cells) [nM]	IC50 (Wee1 protein) [nM]	IC50 (H1299 cells; [6]) [nM]	half-life at 1 µM [3] [min]	fraction unbound at 5 h, 1 µM [4]	AUC(0-t) [5] [ng·h/mL]	Cmax [5] [ng/mL]	MRT [5] [min]	half-life [5] [min]	IC50 (H1299 cells; listed as Compound53, read-out: H1299 (IC50, inhibition of proliferation in vitro)) [nM]
C=CCn1c(=O)c2cnc(Nc3ccc(N4C[C@@H]5C[C@H]4CN5C)c(C)c3)nc2n1-c1cccc(C(C)(C)O)n1 [Compound 12]	31.5	11.8	2.84	33.5	100 to 1000	5 to 10	100 to 1000							
C=CCn1c(=O)c2cnc(Nc3ccc(OC4CN5CCC4CC5)cc3)nc2n1-c1cccc(C(C)(C)O)n1 (stereo not drawn) [Compound 4]	10.1					< 5	1000 to 2000	22.2						
C=CCn1c(=O)c2cnc(Nc3ccc(N4CC5CC(C4)N5C)cc3)nc2n1-c1ccc2cnn(CC)c2n1 [Compound 53]					2000 to 5000	5 to 10			0.035	1640	800	115	113	100 to 1000
C=CCn1c(=O)c2cnc(Nc3ccc(N4CC5CC(C4)N5C4CCC4)cc3)nc2n1-c1cccc(C(C)(C)O)n1 [Compound 49]					100 to 1000	< 5	100 to 1000		0.042	534	388	68.4	61.8	
C=CCn1c(=O)c2cnc(Nc3ccc(CC4C(=O)C5CCN4CC5)cc3)nc2n1-c1cccc(N=S(C)(C)=O)n1 (stereo not drawn) [Compound 6]	5.72					< 5	100 to 1000	5.16						
C=CCn1c(=O)c2cnc(Nc3ccc(N4CCOC5(CCCN(C)C5)C4)cc3)nc2n1-c1cccc(C(C)(C)O)n1 (stereo not drawn) [Compound 46]	13.6				100 to 1000	10 to 100	100 to 1000	16.8	0.179					
C=CCn1c(=O)c2cnc(Nc3ccc(N4CC5CC(C4)N5C(C)C)cc3)nc2n1-c1cccc(C(C)(C)O)n1 [Compound 42]		7.99	6.22	49.7	100 to 1000	10 to 100	100 to 1000							
C=CCn1c(=O)c2cnc(Nc3cccc(CC4C(=O)C5CCN4CC5)c3)nc2n1-c1cccc(N=S(C)(C)=O)n1 (stereo not drawn) [Compound 10]	1.34					< 5	100 to 1000	8.31						
C=CCn1c(=O)c2cnc(Nc3ccc(N4CC5CC(CN(CC(F)(F)F)C5)C4)cc3)nc2n1-c1cccc(C(C)(C)O)n1 [Compound 33]		0.83	9.12	7.56	2000 to 5000	10 to 100	1000 to 2000							
C=CCn1c(=O)c2cnc(Nc3ccc(N4CC5CC(C4)N5CCF)cc3)nc2n1-c1cccc(C(C)(C)O)n1 [Compound 48]		2.65	13.3	35.3	100 to 1000	< 5	100 to 1000		0.031	482	470	54	38.4	
C=CCn1c(=O)c2cnc(Nc3ccc(N4CC5CC(C4)N5C)cc3)nc2n1-c1ccc2ccn(CC)c2n1 [Compound 51]	14.7				100 to 1000	< 5	100 to 1000	19	0.03	430	290	70.8	57	
C=CCn1c(=O)c2cnc(Nc3ccc(OCC)c(CC4C(=O)C5CCN4CC5)c3)nc2n1-c1cccc(N=S(C)(C)=O)n1 (stereo not drawn) [Compound 9]	0.78					< 5	1000 to 2000	2.82						
